Laboratory results as given in ChEMBL document CHEMBL1135901, “Molecular dynamics and free energy analyses of cathepsin D-inhibitor interactions: insight into structure-based ligand design” (J Med Chem, 2002).

Each molecule was assayed against Cathepsin D (Homo sapiens, UniProt P07339) (assay: Inhibitory activity of compound against human Cathepsin D).
Cathepsin D, sequence (P07339 65-162 limits assumed): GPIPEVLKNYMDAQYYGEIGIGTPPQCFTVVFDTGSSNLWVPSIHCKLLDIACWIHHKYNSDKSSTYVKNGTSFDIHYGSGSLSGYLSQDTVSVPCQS
Cathepsin D, sequence (P07339 169-412 limits assumed): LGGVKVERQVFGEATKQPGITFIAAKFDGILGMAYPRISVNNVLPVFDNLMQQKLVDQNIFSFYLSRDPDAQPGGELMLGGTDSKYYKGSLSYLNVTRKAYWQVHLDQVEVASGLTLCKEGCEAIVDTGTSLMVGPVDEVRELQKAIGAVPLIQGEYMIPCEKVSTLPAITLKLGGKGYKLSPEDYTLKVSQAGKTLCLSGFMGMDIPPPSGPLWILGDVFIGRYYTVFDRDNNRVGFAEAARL
`O=C(/C=C/c1c(Cl)cccc1Cl)N[C@@H](Cc1ccccc1)[C@@H](O)CN(CCc1ccccn1)C(=O)COc1c(Cl)cc(Cl)cc1Cl` was tested, and the Ki was greater than 100000 nM.
For `O=C(COc1c(Cl)cc(Cl)cc1Cl)N[C@@H](Cc1ccccc1)[C@@H](O)CN(CCc1ccc2c(c1)OCO2)C(=O)CCN1C(=O)c2ccccc2C1=O`, the Ki was 73 nM.
`O=C(COc1ccc(Cl)cc1Cl)N[C@@H](Cc1ccccc1)[C@@H](O)CN(CCc1ccc2c(c1)OCO2)C(=O)CCN1C(=O)c2ccccc2C1=O` was tested, and the Ki was 3 nM.
`O=C(/C=C/c1c(Cl)cccc1Cl)N[C@@H](Cc1ccccc1)[C@@H](O)CN(CCc1cccs1)C(=O)CCc1ccc(Cl)c(Cl)c1` showed a Ki of roughly 10000 nM.
With `COc1cc(Br)c(C(=O)N[C@@H](Cc2ccccc2)[C@@H](O)CN(CCc2ccc(Cl)cc2Cl)C(=O)CCN2C(=O)c3ccccc3C2=O)cc1OC` the Ki was 5.2 nM.
Work on `O=C(COc1cc(Cl)c(Cl)cc1Cl)N[C@@H](Cc1ccccc1)[C@H](O)CN(CCc1ccc2c(c1)OCO2)C(=O)CCN1C(=O)c2ccccc2C1=O` yielded a Ki greater than 5000 nM.
